Measured values from US10641781B2, “Method, composition and device for sampling natriuretic peptides in a biological fluid” (CRIMSON U.S. ASSETS, LLC, priority 2008, dated 2020).
Entries after “also recorded” stand apart in the source; their conditions may differ. Where a name gives a salt, the structure may show the parent alone. Where a SMILES comes first, the peptide text is derived from it. [ ]: non-standard residue; d: D form. The star is where a group is joined. Sta = CC(C)C[C@H](N)[C@@H](O)CC(=O)O; Isovaleryl = CC(C)CC(=O)*; CH2Cl = ClC*

Experiments:
[1] = test system: BNP hydrolysis; assay: BNP hydrolysis in EDTA versus heparin plasma at room temperature, MSIA; format: biochemical, human; settings: plasma spiked with BNP1-32, room temperature, aliquots at 1 hour and 2 hours
Description: Blood from a single individual was collected in both heparin and EDTA blood collection tubes. The collected blood was centrifuged to remove cellular components and the supernatant (plasma) was collected. To the EDTA and heparin plasma, BNP1-32 was added and incubated at room temperature with aliquots removed for analysis of BNP hydrolysis at 1 hour and 2 hours.

[2] = test system: proteolysis of BNP; settings: sampled blood or plasma; cited from earlier work
[3] = test system: BNP1-32 hydrolysis; assay: BNP1-32 hydrolysis in heparin plasma treated with protease inhibitors, room temperature, MSIA; format: biochemical, human; settings: for effect on BNP hydrolysis: BNP1-32 10 ng/mL
Text: (§1) In order to observe, characterize and identify the BNP hydrolysis products a Mass Spectrometric Immunoassay (MSIA) was developed and employed in the analysis of BNP. This technique is broadly described in, e.g., Nelson et al. (1995) Anal. Chem. 67, 1153-1158; Tubbs et al. (2001) Anal. Biochem. 289, 26-35; Kiernan et al. (2002) Anal. Biochem. 301, 49-56; Niederkofler et al. (2003) J. Lipid Res. 44, 630-639 and U.S. Pat. Nos. 6,783,672; 6,974,704; 7,083,723; 7,083,724; 7,087,163; 7,087,164; 7,087,165; and 7,087,163. The basic methodology is described in the context of BNP although the technique is also applicable to ANP and other peptides of interest.
(§2) Briefly, MSIA entails the use of affinity capture, to extract BNP and many of its' hydrolysis products for mass spectrometric detection, to observe and identify products of BNP hydrolysis. Therefore, synthesized BNP1-32 was added to room temperature plasma (from blood collected in heparinized blood collection tubes). At a several times post-spiking BNP1-32 into the plasma, aliquots of the spiked plasma were analyzed to monitor the progress of BNP1-32 hydrolysis. The results of performing a series of analyses on aliquots removed and analyzed every hour for up to six hours post-addition of BNP1-32 at 100 ng/mL are shown in FIG. 2. […] The last two species are indistinguishable in the chart due to similar amino acid compositions. […]
Next, the individual protease inhibitors, including some of those included in protease inhibitor cocktail set III (EMD) were tested using the protocols described supra. Briefly, aliquots of heparin plasma were treated with each one of the protease inhibitors. To each aliquot of plasma, BNP1-32 was added at 10 ng/mL and incubated at room temperature. Aliquots were sequentially removed and analyzed for BNP hydrolysis.
Briefly, aliquots of heparin plasma were treated with each one of these protease inhibitors. To each aliquot of plasma, BNP1-32 was added at 10 ng/mL and incubated at room temperature. Aliquots were sequentially removed and analyzed for BNP hydrolysis.
Further testing added to the list of inexpensive protease inhibitors effective in combination with AEB SF in avoiding adducts starting with benzamidine hydrochloride (Calbiochem catalog no. 199001). […] Briefly, aliquots of heparin plasma were treated with the protease inhibitor. To each aliquot of plasma, BNP1-32 was added at 10 ng/mL and incubated at room temperature. Aliquots were sequentially removed and analyzed for BNP hydrolysis.
In addition, PPACK I dihydrochloride (Calbiochem catalog no. 520222) and PPACK II trifluoroacetate salt (Calbiochem catalog no. 520219) were also tested at a concentration of 1 mM each. […]

[4] = Time course of BNP1-32 hydrolysis in plasma without inhibitor, by mass spectrometric immunoassay (MSIA); format: in vitro ADME, human; settings: heparin plasma, no inhibitor, room temperature, BNP1-32 at 100 ng/mL, four hours after addition
Text: as §1, §2

[5] = cited from earlier work
[6] = after separation of plasma from whole blood; cited from earlier work
[7] = test system: BNP hydrolysis; assay: BNP stability in plasma stored at -70 C, MSIA; format: biochemical, human; settings: tested on day of collection and six months later
Description: The limited proteolysis prior to the addition of the protease inhibitors is preserved in the sample. The sampled plasma was assayed for the presence of BNP fragments on the day of collection and then six month later. […] This may reflect the presence of metalloproteinases in heparinized blood.
To examine this, BNP peptides corresponding to those previously identified as products resulting from the hydrolysis of BNP1-32 were synthesized and added to EDTA plasma treated with 10 mM AEBSF and 20 mM Benzamidine. An aliquot of the sample was analyzed for the added BNP peptides soon after the addition of the peptides to the plasma, while the rest of the plasma was stored at −70° C. for 7 weeks. After 7 weeks of storage the plasma was removed from the freezer, thawed and analyzed for the existence of the added BNP peptides.

[8] = weak basic conditions (pH 8-9); cited from earlier work

Heparin
effect of anti-coagulant on BNP hydrolysis [1]: relatively ineffective in preventing BNP proteolysis | effect of anti-coagulant on BNP hydrolysis ([1]; listed as heparin): progress towards the production of BNP hydrolysis products smaller than the BNP3-32

NC(N)=NCCC[C@H](NC(=O)[C@@H]1CCCN1C(=O)[C@H](N)Cc1ccccc1)C(=O)CCl [PPACK]
effectiveness in arresting proteolysis of BNP [2]: most effective in arresting proteolysis of BNP

CC(C)CC(=O)N[C@H](C(=O)N[C@H](C(=O)N[C@@H](CC(C)C)[C@@H](O)CC(=O)N[C@@H](C)C(=O)N[C@@H](CC(C)C)[C@@H](O)CC(=O)O)C(C)C)C(C)C [Pepstatin A] (Isovaleryl-VV[Sta]A[Sta]-OH)
effect on BNP hydrolysis ([3]; inhibitor at 0.1 mM): little or no effect on BNP proteolysis; also recorded: did not appreciably prevent the hydrolysis of BNP

BNP1-32: 32-amino acid B-type natriuretic peptide; synthesized BNP1-32 spiked into plasma
hydrolysis of BNP1-32 in plasma [4]: all of the BNP1-32 appears to have been processed into smaller peptides | half-life (t1/2) in vivo [5]: approximately 20 minutes | time within which BNP is proteolyzed in vitro [6]: ≤ 24 h

NC(N)=NCCC[C@H](NC(=O)[C@H](Cc1ccccc1)NC(=O)[C@H](N)Cc1ccccc1)C(=O)CCl [PPACK II] (H-[dF]-Phe-Arg-CH2Cl)
effect on BNP hydrolysis ([3]; inhibitor at 1 mM): slowed the rate of BNP hydrolysis; also recorded: reduced BNP proteolysis

Cl.Cl.NC(N)=NCCC[C@H](NC(=O)[C@@H]1CCCN1C(=O)[C@H](N)Cc1ccccc1)C(=O)CCl [PPACK I]
effect on BNP hydrolysis ([3]; inhibitor at 1 mM): slowed the rate of BNP hydrolysis; also recorded: reduced BNP proteolysis

CC(=O)N[C@@H](CC(C)C)C(=O)N[C@@H](CC(C)C)C(=O)N[C@H](C=O)CCCNC(=N)N [Leupeptin]
effect on BNP hydrolysis ([3]; inhibitor at 0.1 mM): slowed the hydrolysis of BNP | effect on BNP hydrolysis ([3]; inhibitor at 1 mM): slow BNP proteolysis

CC(C)C[C@H](NC(=O)[C@@H](O)[C@H](N)Cc1ccccc1)C(=O)O [Bestatin]
effect on BNP hydrolysis ([3]; inhibitor at 0.5 mM): little or no effect on BNP proteolysis; also recorded: did not appreciably prevent the hydrolysis of BNP

CC(C)C[C@H](NC(=O)[C@H]1O[C@@H]1C(=O)O)C(=O)NCCCCN=C(N)N [E64]
effect on BNP hydrolysis ([3]; inhibitor at 1 mM): little or no effect on BNP proteolysis; also recorded: did not appreciably prevent the hydrolysis of BNP

N=C(N)c1ccccc1 [Benzamidine hydrochloride, Benzamidine]
effectiveness in slowing BNP hydrolysis relative to other inhibitors ([3]; 1 mM): better than PPACK I and PPACK II, but it was not as effective as AEBSF | effect on BNP hydrolysis ([3]; inhibitor at 1 mM): slowed the hydrolysis of BNP | effect on BNP hydrolysis ([3]; inhibitor at 1 mM, listed as Benzamidine): reduced BNP proteolysis

O=C([O-])CN(CCN(CC(=O)[O-])CC(=O)O)CC(=O)[O-].[Na+].[Na+].[Na+] [EDTA, ethylenediamine tetracetic acid]
effect of anti-coagulant on BNP hydrolysis [1]: BNP hydrolysis stops with the formation of the BNP3-32; also recorded: reduce BNP hydrolysis | BNP hydrolysis in EDTA plasma without protease inhibitors [7]: the hydrolysis stops at the formation of the BNP3-32; also recorded: proteolysis of BNP1-32 leading to the formation of BNP3-32

Cl.NCCc1ccc(S(=O)(=O)F)cc1 [AEBSF, 4-(2-Aminoethyl) benzenesulfonyl fluoride hydrochloride]
effect on BNP hydrolysis ([3]; inhibitor at 1 mM, hydrochloride): slowed the hydrolysis of BNP; also recorded: reduced BNP proteolysis | effect on BNP hydrolysis ([3]; inhibitor at 2.5 mM, hydrochloride): almost completely inhibited the hydrolysis of BNP; also recorded: reduced BNP proteolysis | effect on BNP hydrolysis ([3]; inhibitor at 5 mM, hydrochloride): almost completely inhibited the hydrolysis of BNP; also recorded: reduced BNP proteolysis | hydrolysis of the inhibitor [8]: slow hydrolysis
